Measurements from patent US20100093861A1, “TREATMENT OF INSULIN RESISTANCE OR DISEASES ASSOCIATED WITH INSULIN RESISTANCE” (Stevia ApS, priority 2006, published 2010).

Columns and labels:
[1] = tested on: isolated NMRI mice islets; assay: Glucose stimulated insulin secretion (GSIS) from isolated NMRI mice islets; format: cell-based; conditions: 10^−8 mol/l-10^−6 mol/l, 16.7 mmol/l glucose, 60 minutes
Procedure: For in vitro studies with steviol and ISV, we included adult female NMRI mice (Taconic, Ry Denmark), all weighing 22-25 g. We used 12 hours light/dark cycle. The Danish Council for Animal experiments has approved the study.
Islets were isolated by the collagenase digestion technique. In brief, the animals were anesthetized with pentobarbital (50 mg/kg intraperitoneally) and midline laparotomy was performed. The pancreas was retrogradely filled with 3 mL ice-cold Hanks balanced salt solution (([HBSS] Sigma Chemical, St Louis, Mo.) supplemented with 0.3 mg/ml collagenase Boehringer Mannheim GmbH, Germany). The pancreas was subsequently removed and incubated for 19 minutes at 37° C. After rinsing in HBSS, the islets were handpicked under a stereomicroscope and immediately transferred to a tubes containing 1 ml Trizol (Gibco/Invitrogene, Calsbad, Calif., USA). The islets isolated from the NMRI mice were incubated overnight at 37° C. and 95% normal atmosphere/5% CO2 in 10 ml RPMI 1640 containing 11.1 mmol/L glucose supplemented with penicillin G and 100 μg/mL streptomycin (all Gibco/Invitrogene, Calsbad, Calif., USA).
The NMRI female mice islets were rinsed twice with a modified Krebs-Ringer buffer (KRB) supplemented with 3.3 mmol/L glucose and 0.1% human serum albumin (Sigma). The KRB contained 125 mmol/L NaCl, 5.9 mmol/L KCl, 1.2 MgCl, 1.28 CaCl2 and 25 mmol/L HEPES (Ph 7.4: all Sigma). Single islets were incubated in 100 μL KRB containing glucose (3.3 and 16.7 mmol/L) and steviol/ISV according to the protocols (Jeppesen et al., 2000). After incubation (60 min), 50 μL of the medium was frozen for RIA analysis of insulin.

isolated mouse islets = conditions: previously demonstrated (Jeppesen, P. B. et al., 2000); cited from earlier work

SMILES: C=C1C[C@@]23CC[C@H]4[C@@](C)(CCC[C@@]4(C)C(=O)O)[C@@H]2CC[C@]1(O)C3 [steviol, ent-kaur-16-en-13-ol-19-oic acid]
- potency on GSIS, isosteviol compared with steviol, at higher concentration [1]: not found any significant difference
- insulinotropic effect on isolated mouse islets (isolated mouse islets): potent insulinotropic effect
